Test results: patent publication US20210309978A1, “POLYNUCLEOTIDE SEQUENCE ENCODING A LOCAL SOURCED NOVEL ESTERASE” (ISTANBUL TEKNIK UNIVERSITESI, priority 2018, published 2021)
Like-named read-outs stand apart in the source and are kept apart here.

Experiments:
esterase enzyme [1] = experiment: Effect of solutions (solvents) on enzyme activity; format: biochemical, microflora of Ac1göl (Aci Lake); conditions: 10% solution added into the reaction
Method: (§1) 6. […] The final concentration of the enzyme and substrate have been 1 μM and 1 mM respectively and absorbance measurements have been taken at 410 nm. The activity has been calculated by means of the below formula and one unit of activity has been defined as the enzyme amount which produces 1 μmol product in 1 minute.
(§2) Activity (U/L)=[(ΔAbs/t)/(ε*d)]*106*Vt/Vs • ΔAbs=Absorbance change; t=time (minute); ε=extinction coefficient (M−1 cm−1); d=light path (cm); Vt=total reaction volume; Vs=enzyme volume used in reaction.
(§3) Additionally, the effect of different solutions (hexane, chloroform, acetone, dimethyl formamide (DMF), dimethyl sulphoxide (DMSO), 2-propanol, butanol, 1-propanol, ethanol, methanol and glycerol) on the activity and stability of the enzyme have been measured. In the activity tests, 10% solution has been added into the reaction and in the stability tests the enzyme has been incubated for 24 hours in a buffer solution containing 15% and 30% solution.

esterase enzyme [2] = experiment: Effect of solutions (solvents) on enzyme stability (24 hours incubation); format: biochemical, microflora of Ac1göl (Aci Lake); conditions: for Effect of solutions on stability, Activity (%) 15% Solution: enzyme incubated 24 hours in buffer containing 15% solution; for Effect of solutions on stability, Activity (%) 30% Solution: enzyme incubated 24 hours in buffer containing 30% solution
Method: as §1, §2, §3

esterase enzyme [3] = experiment: Effects of inhibitors and detergents on enzyme activity; format: biochemical, microflora of Ac1göl (Aci Lake)
esterase enzyme [4] = experiment: Effect of metals on enzyme activity; format: biochemical, microflora of Ac1göl (Aci Lake); conditions: for Metal tolerance, This study: the enzyme of the invention in presence of metal ion
[5] = test system: new true lipase isolated through metagenomic approach; conditions: literature enzyme in presence of metal ion; cited from earlier work
[6] = test system: Salt-Tolerant Esterase from the Deep-Sea Sediment of the South China Sea; conditions: literature enzyme in presence of metal ion; cited from earlier work
[7] = test system: heavy metal-resistant, thermophilic esterase from a Red Sea Brine Pool; conditions: literature enzyme in presence of metal ion; cited from earlier work
[8] = test system: thermophilic and halophilic esterase from Janibacter sp. R02; conditions: literature enzyme in presence of metal ion; cited from earlier work

**Q.** Which “Effect of solutions on activity, Activity (%)” value (esterase enzyme [1]) does the source give for 1-propanol here?
**A.** Its value is 2.6 ± 2.4%.

**Q.** What about the “Effect of solutions on stability, Activity (%) 15% Solution” value (shortened to “Effect of solutions … (%) 15% Solution”) (esterase enzyme [2]) of the same molecule?
**A.** The value was 85.7 ± 2.6%.

**Q.** What about the “Effect of solutions on stability, Activity (%) 30% Solution” value (from here on “Effect of solutions … (%) 30% Solution”) (esterase enzyme [2]) of the same molecule?
**A.** Its value is 23.3 ± 5.4%.

**Q.** With `O[C@H](CS)[C@H](O)CS` (racemic) [DTT, dithiothreitol] as the molecule, how does the “Activity (%) (1 mM inh.)” value (esterase enzyme [3]; 1 mM inh.) read?
**A.** The value was 36.7 ± 2.4%.

**Q.** And the “Activity (%) (5 mM inh.)” value (esterase enzyme [3]; 5 mM inh.)?
**A.** The value was 25.1 ± 0.8%.

**Q.** For `CC(C)O` [2-Propanol, 2-propanol], which “Effect of solutions on activity, Activity (%)” value (esterase enzyme [1]) is on record?
**A.** Its value is 21.4 ± 1.6%.

**Q.** What about the “Effect of solutions … (%) 15% Solution” value (esterase enzyme [2]) of the same molecule?
**A.** Its value is 104.3 ± 1.2%.

**Q.** And the “Effect of solutions … (%) 30% Solution” value (esterase enzyme [2])?
**A.** Its value is 62.3 ± 4.3%.

**Q.** With `CC(C)=O` [Acetone, acetone] as the molecule, how does the “Effect of solutions on activity, Activity (%)” value (esterase enzyme [1]) read?
**A.** The value was 36 ± 4.9%.

**Q.** And the “Effect of solutions … (%) 15% Solution” value (esterase enzyme [2])?
**A.** The value was 113.7 ± 2.5%.

**Q.** And the “Effect of solutions … (%) 30% Solution” value (esterase enzyme [2])?
**A.** Its value is 85.2 ± 5.6%.

**Q.** With `O=[N+]([O-])[O-].[Ag+]` [AgNO3] as the molecule, how does the “Activity (%) (1 mM metal)” value (esterase enzyme [4]; 1 mM metal) read?
**A.** Its value is 31.6 ± 6.5%.

**Q.** What about the “Activity (%) (5 mM metal)” value (esterase enzyme [4]; 5 mM metal) of the same molecule?
**A.** Its value is 0.0%.

**Q.** With `[Ag+]` [Ag^+] as the molecule, how does the “Metal tolerance, Glogauer et al, 2011” value [5] read?
**A.** Its value is 8.

**Q.** What about the “Metal tolerance, This study” value (esterase enzyme [4]) of the same molecule?
**A.** Its value is 32.

**Q.** What does the source list for `O=S(=O)([O-])[O-].O=S(=O)([O-])[O-].O=S(=O)([O-])[O-].[Al+3].[Al+3]` [Al2SO4]?
**A.** Activity (%) (1 mM metal) (esterase enzyme [4]; 1 mM metal): 91.2 ± 9.8%; Activity (%) (5 mM metal) (esterase enzyme [4]; 5 mM metal): 0.0%

**Q.** Which “Metal tolerance, Glogauer et al, 2011” value [5] does the source give for `[Al+3]` [Al^3+] here?
**A.** The value was 45.

**Q.** And the “Metal tolerance, This study” value (esterase enzyme [4])?
**A.** The value was 91.

**Q.** Which results are given for `CCCCCCCCCCCCCCCC[N+](C)(C)C.[Br-]` [CTAB, cetrimonium bromide]?
**A.** Activity (%) (1 mM inh.) (esterase enzyme [3]; 1 mM inh.): 91 ± 6.6%; Activity (%) (5 mM inh.) (esterase enzyme [3]; 5 mM inh.): 1.3 ± 0.3%

**Q.** What does the source list for `[Ca+2].[Cl-].[Cl-]` [CaCl2]?
**A.** Activity (%) (1 mM metal) (esterase enzyme [4]; 1 mM metal): 130.2 ± 1.7%; Activity (%) (5 mM metal) (esterase enzyme [4]; 5 mM metal): 105.1 ± 1.4%

**Q.** What does the source list for `[Ca+2]` [Ca^2+]?
**A.** Metal tolerance, Glogauer et al, 2011 [5]: 73; Metal tolerance, This study (esterase enzyme [4]): 130; Metal tolerance, Zhang et al, 2017 [6]: 95; Metal tolerance, Mohamed et al, 2013 [7]: 95; Metal tolerance, Castilla et al, 2017 [8]: 110

**Q.** Which “Effect of solutions on activity, Activity (%)” value (esterase enzyme [1]) does the source give for `ClC(Cl)Cl` [Chloroform, chloroform] here?
**A.** The value was 5.1 ± 0.8%.

**Q.** What about the “Effect of solutions … (%) 15% Solution” value (esterase enzyme [2]) of the same molecule?
**A.** The value was 97.9 ± 1.4%.

**Q.** And the “Effect of solutions … (%) 30% Solution” value (esterase enzyme [2])?
**A.** Its value is 100.2 ± 5.6%.

**Q.** Which results are given for `[Cl-].[Cl-].[Co+2]` [CoCl2]?
**A.** Activity (%) (1 mM metal) (esterase enzyme [4]): 112.7 ± 3.4%; Activity (%) (5 mM metal) (esterase enzyme [4]): 3.6 ± 1.0%

**Q.** With `[Co+2]` [Co^2+] as the molecule, how does the “Metal tolerance, Glogauer et al, 2011” value [5] read?
**A.** Its value is 54.

**Q.** And the “Metal tolerance, This study” value (esterase enzyme [4])?
**A.** Its value is 113.

**Q.** And the “Metal tolerance, Zhang et al, 2017” value [6]?
**A.** Its value is 85.

**Q.** And the “Metal tolerance, Mohamed et al, 2013” value [7]?
**A.** The value was 104.

**Q.** And the “Metal tolerance, Castilla et al, 2017” value [8]?
**A.** Its value is 50.

**Q.** With `O=S(=O)([O-])[O-].[Cu+2]` [CuSO4] as the molecule, how does the “Activity (%) (1 mM metal)” value (esterase enzyme [4]; 1 mM metal) read?
**A.** The value was 117.5 ± 5%.

**Q.** What about the “Activity (%) (5 mM metal)” value (esterase enzyme [4]; 5 mM metal) of the same molecule?
**A.** The value was 1.4 ± 1.1%.

**Q.** For `[Cu+2]` [Cu^2+], which “Metal tolerance, This study” value (esterase enzyme [4]) is on record?
**A.** Its value is 118.

**Q.** What about the “Metal tolerance, Zhang et al, 2017” value [6] of the same molecule?
**A.** The value was 82.

**Q.** What about the “Metal tolerance, Mohamed et al, 2013” value [7] of the same molecule?
**A.** The value was 95.

**Q.** What about the “Metal tolerance, Castilla et al, 2017” value [8] of the same molecule?
**A.** Its value is 60.

**Q.** With `CN(C)C=O` [DMF, dimethyl formamide] as the molecule, how does the “Effect of solutions on activity, Activity (%)” value (esterase enzyme [1]) read?
**A.** The value was 33.2 ± 7.0%.

**Q.** What about the “Effect of solutions … (%) 15% Solution” value (esterase enzyme [2]) of the same molecule?
**A.** The value was 121.3 ± 1.6%.

**Q.** And the “Effect of solutions … (%) 30% Solution” value (esterase enzyme [2])?
**A.** The value was 105.3 ± 1.6%.

**Q.** For `C[S+](C)[O-]` [DMSO, dimethyl sulphoxide], which “Effect of solutions on activity, Activity (%)” value (esterase enzyme [1]) is on record?
**A.** The value was 92%.

**Q.** And the “Effect of solutions … (%) 15% Solution” value (esterase enzyme [2])?
**A.** Its value is 106.1 ± 0.9%.

**Q.** And the “Effect of solutions … (%) 30% Solution” value (esterase enzyme [2])?
**A.** Its value is 102.2 ± 4.8%.

**Q.** What does the source list for `O=C(O)CN(CCN(CC(=O)O)CC(=O)O)CC(=O)O` [EDTA, ethylene diamine tetraacetic acid]?
**A.** Activity (%) (1 mM inh.) (esterase enzyme [3]; 1 mM inh.): 89.6 ± 1.7%; Activity (%) (5 mM inh.) (esterase enzyme [3]; 5 mM inh.): 66.5 ± 1.2%

**Q.** With `O=C(O)CN(CCOCCOCCN(CC(=O)O)CC(=O)O)CC(=O)O` [EGTA, ethylene glycol tetraacetic acid] as the molecule, how does the “Activity (%) (1 mM inh.)” value (esterase enzyme [3]) read?
**A.** The value was 100.2 ± 2.1%.

**Q.** And the “Activity (%) (5 mM inh.)” value (esterase enzyme [3])?
**A.** The value was 87.6 ± 3.9%.

**Q.** With `CCO` [Ethanol, ethanol] as the molecule, how does the “Effect of solutions on activity, Activity (%)” value (esterase enzyme [1]) read?
**A.** Its value is 45.1 ± 0.3%.

**Q.** What about the “Effect of solutions … (%) 15% Solution” value (esterase enzyme [2]) of the same molecule?
**A.** Its value is 105.9 ± 4.7%.

**Q.** And the “Effect of solutions … (%) 30% Solution” value (esterase enzyme [2])?
**A.** The value was 98.2 ± 0.5%.
